According to patent publication US20040038369A1, “Airway-specific trypsin-like enzymes and method of using the same” (priority 2000, published 2004):

Key:
[1] = tested on: HBEGF (Δ TM)-ALP; experiment: Cleavage of HBEGF (Δ TM)-ALP due to HAST (western blotting); type: biochemical, human; conditions: recombinant HAST, 37° C. overnight
Method: 293EBNA cell strain was sowed in a density of 9×10^6 cells/10 cm dish, cultured overnight, and then transfected with the human HBEGF-expressing plasmid: pEF9-HBEGF (Δ TM)-ALP prepared in 1). 12 μg of the pEF9-HBEGF (Δ TM)-ALP was subjected to a lipofection with 75 μL of Lipofectamine 2000 (produced by GIBCO-BRL). The lipofection was carried out according to an appended manual. 72 hour later, the cells were peeled with a pipette, and then centrifuged at 3000 rpm at 4° C. for five minutes. The lysate was dissolved in 12 mL of M-PER (produced by PIERCE Corp.), subjected to an SDS-polyacrylamide gel electrophoresis under a non-reducing condition, and then blotted on a nitrocellulose membrane (produced by BIO-RAD Corp.).
The product blotted on the nitrocellulose membrane was treated with 3% BSA-containing PBS at 4° C. overnight and then reacted with the anti-human HB-EGF antibody (produced by GENZYME Corp., an antibody recognizing an EGFR-binding site) diluted with 1% BSA-containing PBS in a concentration of 1 μg/mL, at room temperature for one hour. The nitrocellulose membrane was washed with 0.05% Tween 20-containing PBS three times, and then reacted with Swine Anti-Goat Ig's-ALP antibody (produced by BIOSOURCE Corp.) diluted with 1% BSA-containing PBS in a concentration of 1 μg/mL at room temperature for one hour. […]

[2] = tested on: BEAS-2B; experiment: Calcium influx in airway epithelial cell strain BEAS-2B; type: cell-based; conditions: AST 2 units/mL; trypsin 10 to 100 units/mL; SFLLRNamide 100 μM
Method: The Ca^2+ influx due to the AST was examined with respect to an airway epithelial cell strain BEAS-2B. The confluent cells adhered to six 10 cm dishes were used. The cells were peeled with a 10 mM EDTA/HEPES-Tyrode buffer solution for 10 minutes, recovered by a centrifugal treatment at 1,500 rpm at room temperature for 5 minutes, and then resuspended in 10 mL of HEPES-Tyrode buffer solution-Ca^2+ (−) pH 7.4. The recovered cells (about 1.1×10^7 cells) were suspended in 11 mL of HEPES-Tyrode buffer solution (1 μg/mL, containing Fura2-AM) to load the Fura2-AM at 37° C. for 30 minutes. The cells were recovered by a centrifugal treatment at 1,500 rpm at room temperature for 5 minutes, twice washed with HEPES-Tyrode buffer solution-Ca^2+ (−) pH 7.4, and then resuspended in 11 mL of HEPES-Tyrode buffer solution-Ca^2+ (−) pH 7.4. The cell suspension was mixed with […] of 1M CaCl2 to give a final concentration of 1 mM CaCl2, and then incubated in a shaded state at room temperature for 5 minutes. The prepared Fura2-AM-loaded infected cells were dispensed into a 96 well plate in a volume of 100 μL/well, further subjected to the dispensation of HEPES-Tyrode buffer solution-Ca^2+ (+) pH 7.4 in a volume of 80 μL/well, and then assayed with Fluorescence Drug Screening System (Hamamatsu Photonics Co.). […]

Substance: HAST: human airway-specific trypsin-like enzyme; propeptide moiety bound to trypsin-like protein moiety via a disulfide bond
- band reactive with the anti-human HB-EGF antibody [1]: shifted to a low molecular weight
- Ca2+ influx [2]: observed
